One test concerns the target T1, HDAC7 (Homo sapiens, UniProt Q8WUI4).
T1 sequence (Q8WUI4 1-952): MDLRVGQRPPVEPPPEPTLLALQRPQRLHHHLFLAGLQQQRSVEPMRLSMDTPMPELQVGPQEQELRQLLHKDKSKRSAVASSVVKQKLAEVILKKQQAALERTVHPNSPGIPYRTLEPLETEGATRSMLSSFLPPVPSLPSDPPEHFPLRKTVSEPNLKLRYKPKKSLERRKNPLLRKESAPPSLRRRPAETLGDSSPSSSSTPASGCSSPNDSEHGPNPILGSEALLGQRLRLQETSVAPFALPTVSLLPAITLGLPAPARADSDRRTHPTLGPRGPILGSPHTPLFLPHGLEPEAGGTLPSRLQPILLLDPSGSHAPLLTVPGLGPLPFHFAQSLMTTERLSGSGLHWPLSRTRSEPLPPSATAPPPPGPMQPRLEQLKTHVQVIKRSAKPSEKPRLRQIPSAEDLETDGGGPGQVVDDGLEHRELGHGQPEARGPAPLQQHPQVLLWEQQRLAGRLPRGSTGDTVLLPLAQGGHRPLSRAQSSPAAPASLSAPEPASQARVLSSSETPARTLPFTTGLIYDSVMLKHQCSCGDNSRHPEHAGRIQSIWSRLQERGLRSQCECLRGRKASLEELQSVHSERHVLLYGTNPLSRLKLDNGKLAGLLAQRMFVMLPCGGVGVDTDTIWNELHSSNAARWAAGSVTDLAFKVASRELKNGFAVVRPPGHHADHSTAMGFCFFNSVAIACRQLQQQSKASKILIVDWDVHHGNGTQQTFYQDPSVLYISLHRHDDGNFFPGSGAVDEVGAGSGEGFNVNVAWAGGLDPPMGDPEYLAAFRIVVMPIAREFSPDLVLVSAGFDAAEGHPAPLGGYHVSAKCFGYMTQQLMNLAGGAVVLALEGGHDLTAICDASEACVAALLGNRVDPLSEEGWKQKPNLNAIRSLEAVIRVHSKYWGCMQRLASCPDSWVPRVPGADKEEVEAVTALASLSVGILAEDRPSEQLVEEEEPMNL
Kind of test: HDAC biochemical activity measurement (fluorescent substrate deacetylation).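 As to all read-outs here: fluorogenic deacetylation assay using acetyl-lysine substrate at 20 µM, enzyme and compound incubated 30 min at 37 °C, then developer added, fluorescence read at 360/460 nm.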 As to conditions: for IC50 HDAC7: 37° C. 30 minutes.

The test system of test [1] is A549 (human lung cancer cells). The experiment in a line: MTT cancer cell growth inhibition. The conditions noted are these: Homo sapiens, A549, 72 h, MTT, 72 hours incubation, read-out: GI50 A54. It counts as cell-based. In short, it runs like this: (§1)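 Seed 1500 cells/well, incubate overnight. Add compound, 10^−5 to 10^−10 M final, n=3; culture 72 h, 37° C., 5% CO2. Add MTT, 4 h. Discard supernatant, dissolve in DMSO. Read 570 nm; calculate viability and GI50.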

In test [2] the test system is BGC-823 (human gastric cancer cells). The experiment in a line: MTT cancer cell growth inhibition. The class given is cell-based. As to conditions: Homo sapiens, BGC-823, 72 h, MTT, 72 hours incubation, read-out: GI50 BG. In short, it runs like this:
as §1

In test [3] the test system is Bel-7402 (human hepatoma cells). Kind of test: MTT cancer cell growth inhibition. It counts as cell-based. The conditions noted are these: Homo sapiens, Bel-7402, 72 h, MTT, 72 hours incubation, Bel-7402 cells; read-out: GI50 Bel-7402. In short, it runs like this: as §1
For test [4], the system named is DU145 (human prostate cancer cells). The experiment in a line: MTT cancer cell growth inhibition. It counts as cell-based. As to conditions: Homo sapiens, DU-145, 72 h, MTT, 72 hours incubation, read-out: GI50 Du1. In short, it runs like this: as §1
For test [5], the system named is H1975 (non-small cell lung adenocarcinoma). The experiment in a line: MTT cancer cell growth inhibition. It counts as cell-based. The conditions noted are these: Homo sapiens, NCI-H1975, 72 h, MTT, 72 hours incubation, H1975 cells; read-out: GI50 H1975. In a few lines:
as §1

Test [6] relates to HCC827 (human non-small cell lung cancer cells). Kind of test: MTT cancer cell growth inhibition. The class given is cell-based. As to conditions: Homo sapiens, HCC827, 72 h, MTT, 72 hours incubation, HCC827 cells; read-out: GI50 HCC827. In short, it runs like this:
as §1

Test [7] deals with HT1080 (human fibrosarcoma cells). Kind of test: MTT cancer cell growth inhibition. As to conditions: Homo sapiens, HT-1080, 72 h, MTT, 72 hours incubation, read-out: GI50 HT1. The class given is cell-based. In short, it runs like this: as §1
Test [8] deals with Hela (human cervical cancer cells). Kind of test: MTT cancer cell growth inhibition. The class given is cell-based. The conditions noted are these: Homo sapiens, HeLa, 72 h, MTT, 72 hours incubation, read-out: GI50 Hela. In short, it runs like this:
as §1

For test [9], the system named is Huh-7 (human hepatoma cells). Kind of test: MTT cancer cell growth inhibition. It counts as cell-based. As to conditions: Homo sapiens, Huh-7, 72 h, MTT, 72 hours incubation, Huh-7 cells; read-out: GI50 Huh-7. In a few lines: as §1
Test [10] concerns K562 (human leukemia cells). Kind of test: MTT cancer cell growth inhibition. It counts as cell-based. The conditions noted are these: Homo sapiens, K562, 72 h, MTT, 72 hours incubation, K562 cells; read-out: GI50 K562. In a few lines:
as §1

In test [11] the test system is KBM-5 (human chronic myelogenous leukemia). The experiment in a line: MTT cancer cell growth inhibition. It counts as cell-based. The conditions noted are these: Homo sapiens, KBM5, 72 h, MTT, 72 hours incubation, KBM-5 cells; read-out: GI50 KBM-5. In a few lines:
as §1

Test [12] has as its system KBM5-T315I (human chronic myelogenous leukemia). Kind of test: MTT cancer cell growth inhibition. As to conditions: Homo sapiens, 72 h, MTT, 72 hours incubation, KBM5-T315I cells; read-out: GI50 KBM5-T315I. It counts as cell-based. In short, it runs like this:
as §1

For test [13], the system named is MCF-7 (human breast cancer cells). Kind of test: MTT cancer cell growth inhibition. It counts as cell-based. As to conditions: Homo sapiens, MCF7, 72 h, 72 hours incubation, read-out: GI50 MCF. In short, it runs like this: as §1
In test [14] the test system is MDA-MB-231 (breast cancer cells). The experiment in a line: MTT cancer cell growth inhibition. It counts as cell-based. The conditions noted are these: Homo sapiens, MDA-MB-231, 72 h, read-out: GI50 MDA-MB-231, MTT, 72 hours incubation, MDA-MB-231 cells. In short, it runs like this:
as §1

Test [15] deals with MOLT-4 (human acute lymphoblastic leukemia cells). The experiment in a line: MTT cancer cell growth inhibition. It counts as cell-based. The conditions noted are these: Homo sapiens, MOLT-4, 72 h, MTT, 72 hours incubation, read-out: GI50 Mol. In a few lines: as §1
Test [16] has as its system N-87 (human gastric cancer cells). The experiment in a line: MTT cancer cell growth inhibition. It counts as cell-based. As to conditions: Homo sapiens, 72 h, MTT, 72 hours incubation, N-87 cells; read-out: GI50 N-87. In short, it runs like this:
as §1

Test [17] relates to PANC-1 (Pac-1, human pancreatic cancer cells). The experiment in a line: MTT cancer cell growth inhibition. It counts as cell-based. As to conditions: Homo sapiens, PANC-1, 72 h, MTT, 72 hours incubation, read-out: GI50 PAN. In short, it runs like this:
as §1

Test [18] deals with SGC-7901 (human gastric cancer cells). The experiment in a line: MTT cancer cell growth inhibition. The class given is cell-based. As to conditions: Homo sapiens, SGC-7901, 72 h, MTT, 72 hours incubation, SGC-7901 cells; read-out: GI50 SGC-7901. In short, it runs like this:
as §1

For test [19], the system named is U937 (human leukemia cells). Kind of test: MTT cancer cell growth inhibition. The class given is cell-based. As to conditions: Homo sapiens, U-937, 72 h, MTT, 72 hours incubation, read-out: GI50 U93. In short, it runs like this:
as §1

The subject of test [20] is lncap (prostate cancer cells). The experiment in a line: MTT cancer cell growth inhibition. The conditions noted are these: Homo sapiens, LNCaP, 72 h, MTT, 72 hours incubation, read-out: GI50 lnca. It counts as cell-based. In short, it runs like this: as §1

Molecules are shown by their SMILES. Where two headings read alike, the source gives them in different places.

For `C/C=C1\NC(=O)c2ccc(SC)c(n2)CNC(=O)C[C@@H](/C=C/CCSC(=O)CCCCCC)OC(=O)[C@H](C(C)C)NC1=O` [Compound 152], at HDAC7, the “IC50 HDAC7” value is “no activity”. The GI50 stood at 50 nM in test [1] (A549 cells); 50 nM in test [2] (BGC-823 cells); 47 nM in test [3]; 60 nM in [4] (DU145 cells); 38 nM in test [5]; 35 nM in [6]. In addition, the GI50 in [7] (HT1080 cells) turned out to be 90 nM; in [8] (Hela cells), 60 nM; in test [9], 28 nM; in [10], 11 nM; in test [11], 41 nM; in [12], 29 nM. The GI50 worked out at 60 nM in test [13] (MCF-7 cells); 65 nM in test [14]; 90 nM in test [15] (MOLT-4 cells); 35 nM in [16]; 50 nM in test [17] (PANC-1 cells); 23 nM in test [18]. Further, the GI50 in test [19] (U937 cells) is 50 nM; in test [20] (lncap cells), 60 nM.
Regarding `CC(C)=C1NC(=O)c2cccc(n2)CNC(=O)C[C@@H](/C=C/CCS)OC(=O)[C@H](C(C)C)NC1=O` [Compound 135], the “IC50 HDAC7” value against HDAC7 is listed as “no activity”. Besides, the GI50 in [1] was 90 nM; in test [2], 50 nM; in test [3] it was 39 nM; in test [4] it was 50 nM; in test [5], 79 nM; in [6] it was 93 nM. Also, the GI50 in [7] worked out at 90 nM; in [8], 70 nM; in test [9] it was 87 nM; in test [10], 33 nM; in [11], 11 nM; in test [12] it was 51 nM. Besides, the GI50 was 50 nM in test [13]; 41 nM in test [14]; 90 nM in [15]; 26 nM in [16]; 50 nM in test [17]; 44 nM in [18]. Moreover, the GI50 was 90 nM in [19] and 70 nM in test [20].
As for `C/C=C1\NC(=O)c2cccc(n2)CNC(=O)C[C@@H](/C=C/CCS)OC(=O)[C@H](C)NC1=O` [Example 29], on HDAC7, the “IC50 HDAC7” value was “no activity”. Moreover, the GI50 worked out at 270 nM in test [1]; 90 nM in [2]; 91 nM in test [3]; 70 nM in test [4]; 63 nM in test [5]; 29 nM in [6]. The GI50 in test [7] worked out at 60 nM; in test [8], 910 nM; in [9], 77 nM; in [10], 34 nM; in [11], 43 nM; in [12], 37 nM. Besides, the GI50 in test [13] came out at 1210 nM; in test [14], 87 nM; in [15], 70 nM; in test [16], 33 nM; in test [17], 80 nM; in test [18], 29 nM. The GI50 came to 450 nM in [19] and 50 nM in [20].
`C/C=C1\NC(=O)c2cc(SCC)cc(n2)CNC(=O)C[C@@H](/C=C/CCSC(=O)CCCCCC)OC(=O)[C@H](C(C)C)NC1=O` [Compound 251]: at HDAC7, the “IC50 (μM) HDAC7” value was “no activity”. The GI50 in test [1] (A549 cells) was found to be 60 nM; in test [2] (BGC-823 cells), 30 nM; in [3] it was 42 nM; in [4] (DU145 cells), 20 nM; in test [5], 63 nM; in test [6] it was 53 nM. Also, the GI50 in test [7] (HT1080 cells) stood at 20 nM; in test [8] (Hela cells), 20 nM; in test [9], 55 nM; in test [10] it was 35 nM; in test [11] it was 66 nM; in test [12], 81 nM. In addition, the GI50 in test [13] (MCF-7 cells) came to 40 nM; in test [14], 38 nM; in test [15] (MOLT-4 cells), 70 nM; in [16], 36 nM; in test [17] (PANC-1 cells), 50 nM; in [18] it was 49 nM. Moreover, the GI50 in [19] (U937 cells) turned out to be 30 nM; in test [20] (lncap cells), 90 nM.

In general, GI50 refers to the concentration giving 50% growth inhibition.
